# According to US7615643B2 (SmithKline Beecham Corporation, priority 2006, dated 2009):
# Biological target: T1, PLK1 (Homo sapiens, UniProt P53350)
# T1 construct: PLK kinase domain (amino acids 21-346 preceded by MKKGHHHHHHD); made in house; host or cells: baculovirus infected T. ni cells
# Test: Assay for inhibition of PLK1 (SPA kinase assay)
# Assay type: biochemical
# Details: 1 μM ATP, 2 nM PLK1 kinase domain, read-out: PLK1 pIC50 (converted)
# Description: I. Assay for Inhibition of PLK1
# A. Preparation of 6× N-terminal His-tagged PLK Kinase Domain
# 6× N-terminal His-tagged PLK kinase domain (amino acids 21-346 preceded by MKKGHHHHHHD) SEQ ID: No. 1. was prepared from baculovirus infected T. ni cells under polyhedrin promoter control. All procedures were performed at 4° C. Cells were lysed In 50 mM HEPES, 200 mM NaCl, 50 mM imidazole, 5% glycerol; pH 7.5. The homogenate was centrifuged at 14K rpm in a SLA-1500 rotor for 1 hr and the supernatant filtered through a 1.2 micron filter. The supernatant was loaded onto a Nickel chelating Sepharose (Amersham Pharmacia) column and washed with lysis buffer. Protein was eluted using 20%, 30% and 100% buffer B steps where buffer B was 50 mM HEPES, 200 mM NaCl, 300 mM imidazole, 5% glycerol; pH 7.5. Fractions containing PLK were determined by SDS-PAGE. Fractions containing PLK were diluted five-fold with 50 mM HEPES, 1 mM DTT, 5% glycerol; pH 7.5, then loaded on an SP Sepharose (Amersham Pharmacia) column. After washing the column with 50 mM HEPES, 1 mM DTT, 5% glycerol; pH 7.5, PLK was step eluted with 50 mM HEPES, 1 mM DTT, 500 mM NaCl; 5% glycerol; pH 7.5. PLK was concentrated using a 10 kDa molecular weight cutoff membrane and then loaded onto a Superdex 200 gel filtration (Amersham Pharmacia) column equilibrated in 25 mM HEPES, 1 mM DTT, 500 mM NaCl, 5% glycerol; pH 7.5. Fractions containing PLK were determined by SDS-PAGE. PLK was pooled, aliquoted and stored at −80° C. Samples were quality controlled using mass spectrometry, N-terminal sequencing and amino acid analysis.
# B. Enzyme Activity +/− Inhibitors was Determined as Follows:
# All measurements were obtained under conditions where signal production increased linearly with time and enzyme. Test compounds were added to white 384-well assay plates (0.1 μL for 10 μL and some 20 μL assays, 1 μL for some 20 μL assays) at variable known concentrations in 100% DMSO. DMSO (1-5% final, as appropriate) and EDTA (65 mM in reaction) were used as controls. Reaction Mix was prepared as follows at 22° C.: • 25 mM HEPES, pH 7.2 • 15 mM MgCl2 • 1 μM ATP • 0.05 μCi/well ^33P-γ ATP (10 Ci/mMol) • 1 μM substrate peptide (Biotin-Ahx-SFNDTLDFD) SEQ ID:No. 2. • 0.15 mg/mL BSA • 1 mM DTT • 2 nM PLK1 kinase domain (added last)
# Reaction Mix (10 or 20 μL) was quickly added to each well immediately following addition of enzyme via automated liquid handlers and incubated 1-1.5 h at 22° C. The 20 μL enzymatic reactions were stopped with 50 μL of stop mix (50 mM EDTA, 4.0 mg/mL Streptavidin SPA beads in Standard Dulbecco's PBS (without Mg^2+ and Ca^2+), 50 μM ATP) per well. The 10 μL reactions were stopped with 10 μL of stop mix (50 mM EDTA, 3.0 mg/mL Streptavidin-coupled SPA imaging Beads (“LeadSeeker”) in Standard Dulbecco's PBS (without Mg^2+ and Ca^2+), 50 μM ATP) per well. Plates were sealed with clear plastic seals, spun at 500×g for 1 min or settled overnight, and counted in Packard TopCount for 30 seconds/well (regular SPA) or imaged using a Viewlux imager (LeadSeeker SPA). Signal above background (EDTA controls) was converted to percent Inhibition relative to that obtained in control (DMSO-only) wells.
# T1 sequence (P53350 21-346): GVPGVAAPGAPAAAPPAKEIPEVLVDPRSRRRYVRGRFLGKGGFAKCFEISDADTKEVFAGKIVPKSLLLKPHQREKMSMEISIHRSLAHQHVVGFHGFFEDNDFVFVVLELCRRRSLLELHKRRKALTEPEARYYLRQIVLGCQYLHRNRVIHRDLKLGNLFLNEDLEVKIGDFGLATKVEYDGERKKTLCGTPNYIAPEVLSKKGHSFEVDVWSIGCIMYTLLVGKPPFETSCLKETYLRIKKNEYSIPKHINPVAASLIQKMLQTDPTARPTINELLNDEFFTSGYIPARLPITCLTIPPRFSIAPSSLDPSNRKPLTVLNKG
row,IC50,SMILES
1,< 0.1 µM,"CC(Oc1cc(-n2cnc3cc(-c4cnn(C)c4)ccc32)sc1C(N)=O)c1cccc(OC2CCNCC2)c1 (racemic) [Example 73, (+/−)-5-[5-(1-Methyl-1H-pyrazol-4-yl)-1H-benzimidazol-1-yl]-3-({1-[3-(4-piperidinyloxy)phenyl]ethyl}oxy)-2-thiophenecarboxamide]"
2,< 0.1 µM,"CC(Oc1cc(-n2cnc3cc(-c4cnn(C)c4)ccc32)sc1C(N)=O)c1cccc(OC2CCN(C)CC2)c1 (racemic) [Example 74, (+/−)-3-[(1-{3-[(1-methyl-4-piperidinyl)oxy]phenyl}ethyl)oxy]-5-[5-(1-methyl-1H-pyrazol-4-yl)-1H -benzimidazol-1-yl]-2-thiophenecarboxamide]"
3,< 0.1 µM,"CC(Oc1cc(-n2cnc3cc(-c4cnn(C)c4)ccc32)sc1C(N)=O)c1cccc(OC2CCNCC2)c1F (racemic) [Example 75, (+/−)-3-({1-[2-Fluoro-3-(4-piperidinyloxy)phenyl]ethyl}oxy)-5-[5-(1-methyl-1H-pyrazol-4-yl)-1H-benzimidazol-1-yl]-2-thiophenecarboxamide]"
4,< 0.1 µM,"CC(Oc1cc(-n2cnc3cc(-c4cnn(C)c4)ccc32)sc1C(N)=O)c1cccc(OC2CCN(C)CC2)c1F (racemic) [Example 76, (+/−)-3-[(1-{2-Fluoro-3-[(1-methyl-4-piperidinyl)oxy]phenyl}ethyl)oxy]-5-[5-(1-methyl-1H-pyrazol-4-yl)-1H-benzimidazol-1-yl]-2-thiophenecarboxamide]"
5,0.1 to 1 µM,"CC(Oc1cc(-n2cnc3cc(-c4cnn(C)c4)ccc32)sc1C(N)=O)c1ccnc(OC2CCNCC2)n1 (racemic) [Example 77, (+/−)-5-[5-(1-Methyl-1H -pyrazol-4-yl)-1H-benzimidazol-1-yl]-3-({1-[2-(4-piperidinyloxy)-4-pyrimidinyl]ethyl}oxy)-2-thiophenecarboxamide]"
6,0.1 to 1 µM,"CC(Oc1cc(-n2cnc3cc(-c4cnn(C)c4)ccc32)sc1C(N)=O)c1ccnc(OC2CCN(C)CC2)n1 (racemic) [Example 78, (+/−)-3-[(1-{2-[(1-methyl-4-piperidinyl)oxy]-4-pyrimidinyl}ethyl)oxy]-5-[5-(1-methyl-1H-pyrazol-4-yl)-1H-benzimidazol-1-yl]-2-thiophenecarboxamide]"
7,< 0.1 µM,"CC(Oc1cc(-n2cnc3cc(-c4cnn(C)c4)ccc32)sc1C(N)=O)c1ccnc(OC2CCNCC2)c1 (racemic) [Example 79, (+/−)-5-[5-(1-Methyl-1H-pyrazol-4-yl)-1H-benzimidazol-1-yl]-3-({1-[2-(4-piperidinyloxy)-4-pyridinyl]ethyl}oxy)-2-thiophenecarboxamide]"
8,< 0.1 µM,"CC(Oc1cc(-n2cnc3cc(-c4cnn(C)c4)ccc32)sc1C(N)=O)c1cccc(OC2CCNCC2)n1 (racemic) [Example 81, (+/−)-5-[5-(1-Methyl-1H-pyrazol-4-yl)-1H-benzimidazol-1-yl]-3-({1-[6-(4-piperidinyloxy)-2-pyridinyl]ethyl}oxy)-2-thiophenecarboxamide]"
9,< 0.1 µM,"CC(Oc1cc(-n2cnc3cc(-c4cnn(C)c4)ccc32)sc1C(N)=O)c1cccc(OC2CCN(C)CC2)n1 (racemic) [Example 82, (+/−)-3-[(1-{6-[(1-Methyl-4-piperidinyl)oxy]-2-pyridinyl}ethyl)oxy]-5-[5-(1-methyl-1H-pyrazol-4-yl)-1H-benzimidazol-1-yl]-2-thiophenecarboxamide]"
10,< 0.1 µM,"COc1cc2ncn(-c3cc(O[C@H](C)c4cccc(NCC5CCNCC5)c4Cl)c(C(N)=O)s3)c2cc1OC [Example 1, 5-[5,6-Bis(methyloxy)-1H-benzimidazol-1-yl]-3-[((1R)-1-{2-chloro-3-[(4-piperidinylmethyl)amino]phenyl}ethyl)oxy]-2-thiophenecarboxamide]"
11,< 0.1 µM,COc1cc2ncn(-c3cc(O[C@H](C)c4cccc(NCC5CCN(C)CC5)c4Cl)c(C(N)=O)s3)c2cc1OC [Example 2]
12,< 0.1 µM,C[C@@H](Oc1cc(-n2cnc3cc(Cl)ccc32)sc1C(N)=O)c1cccc(OC2CCN(C)CC2)c1Cl [Example 3]
13,< 0.1 µM,"C[C@@H](Oc1cc(-n2cnc3ccc(C#N)cc32)sc1C(N)=O)c1cccc(OC2CCN(C)CC2)c1Cl [Example 4, 3-((1R)-1-{2-chloro-3-[(1-methylpiperidin-4-yl)oxy]phenyl}-ethoxy)-5-(6-cyano-1H-benzimidazol-1-yl)thiophene-2-carboxamide]"
14,< 0.1 µM,"C[C@@H](Oc1cc(-n2cnc3ccc(C#N)cc32)sc1C(N)=O)c1cccc(OC2CCNCC2)c1Cl [Example 5, 3-{(1R)-1-[2-chloro-3(piperidin-4-yloxy)phenyl]ethoxy}-5-(6-cyano-1H-benzimidazol-1-yl)thiophene-2-carboxamide]"
15,< 0.1 µM,"C[C@@H](Oc1cc(-n2cnc3ccc(Br)cc32)sc1C(N)=O)c1cccc(OC2CCN(C)CC2)c1Cl [Example 6, 5-(6-Bromo-1H-benzimidazol-1-yl)-3-[((1R)-1-{2-chloro-3-[(1-methyl-4-piperidinyl)oxy]phenyl}ethyl)oxy]-2-thiophenecarboxamide]"
16,< 0.1 µM,"C[C@@H](Oc1cc(-n2cnc3ccc(Br)cc32)sc1C(N)=O)c1cccc(OC2CCNCC2)c1Cl [Example 7, 5-(6-Bromo-1H-benzimidazol-1-yl)-3-({(1R)-1-[2-chloro-3-(4-piperidinyloxy)phenyl]ethyl}oxy)-2-thiophenecarboxamide]"
17,< 0.1 µM,"C[C@@H](Oc1cc(-n2cnc3cc(Cl)ccc32)sc1C(N)=O)c1cccc(OC2CCNCC2)c1Cl [Example 8, 5-(5-Chloro-1H-benzimidazol-1-yl)-3-({(1R)-1-[2-chloro-3-(4-piperidinyloxy)phenyl]ethyl}oxy)-2-thiophenecarboxamide]"
18,< 0.1 µM,"Cc1ccc(-c2ccc3c(c2)ncn3-c2cc(O[C@H](C)c3cccc(OC4CCNCC4)c3Cl)c(C(N)=O)s2)cn1 [Example 9, 3-({(1R)-1-[2-chloro-3-(4-piperidinyloxy)phenyl]ethyl}oxy)-5-[5-(6-methyl-3-pyridinyl)-1H-benzimidazol-1-yl]-2-thiophenecarboxamide]"
19,< 0.1 µM,"Cc1ccc(-c2ccc3c(c2)ncn3-c2cc(O[C@H](C)c3cccc(OC4CCN(C)CC4)c3Cl)c(C(N)=O)s2)cn1 [Example 10, 3-[((1R)-1-{2-chloro-3-[(1-methyl-4-piperidinyl)oxy]phenyl}ethyl)oxy]-5-[5-(6-methyl-3-pyridinyl)-1H-benzimidazol-1-yl]-2-thiophenecarboxamide]"
20,< 0.1 µM,"C[C@@H](Oc1cc(-n2cnc3cc(-c4cccnc4)ccc32)sc1C(N)=O)c1cccc(OC2CCN(C)CC2)c1Cl [Example 11, 3-[((1R)-1-{2-chloro-3-[(1-methyl-4-piperidinyl)oxy]pheny}ethyl)oxy]-5-[5-(3-pyridinyl)-1H-benzimidazol-1-yl]-2-thiopnenecarboxamide]"
21,< 0.1 µM,"C[C@@H](Oc1cc(-n2cnc3cc(-c4cccnc4)ccc32)sc1C(N)=O)c1cccc(OC2CCNCC2)c1Cl [Example 12, 3-({(1R)-1-[2-chloro-3-(4-piperidinyloxy)phenyl]ethyl}oxy)-5-[5-(pyridinyl)-1H-benzimidazol-1-yl]-2-thiophenecarboxamide]"
22,< 0.1 µM,"C[C@@H](Oc1cc(-n2cnc3ccccc32)sc1C(N)=O)c1cccc(OC2CCN(C)CC2)c1Cl [Example 13, 5-(1H-benzimidazol-1-yl)-3-[((1R)-1-{2-chloro-3-[(1-methyl-4-piperidinyl)gxy]phenyl}ethyl)oxy]-2-thiophenecarboxamide]"
23,< 0.1 µM,"C[C@@H](Oc1cc(-n2cnc3ccccc32)sc1C(N)=O)c1cccc(OC2CCNCC2)c1Cl [Example 14, 5-(1H-Benzimidazol-1-yl)-3-({(1R)-1-[2-chloro-3-(4-piperidinyloxy)phenyl]ethyl}oxy)-2-thiophenecarboxamide]"
